According to article PMC3410613 (Frontiers in Plant Science, 2012):

Target: T1, A. thaliana PII (H6PII-tp) (Arabidopsis thaliana, UniProt Q9ZST4)
T1 sequence (Q9ZST4 62-196): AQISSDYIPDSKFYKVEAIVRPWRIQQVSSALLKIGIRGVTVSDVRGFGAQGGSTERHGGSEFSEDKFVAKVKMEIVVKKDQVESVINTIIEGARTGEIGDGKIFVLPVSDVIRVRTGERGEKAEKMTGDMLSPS
Test: isothermal titration calorimetry
Assay type: binding

O=C(O)CCC(=O)C(=O)O [2OG, 2-oxoglutarate]
Kd: 111 ± 3.4 µM
